This is an account of results in US20220347256A1, “COMPOSITION FOR PROMOTING HAIR GROWTH, AND ALLEVIATING AND TREATING HAIR LOSS INCLUDING SUBSTANCE P” (Biosolution Co., Ltd., priority 2019, published 2022).

Where no end group is shown, it is not given here. Bounds are passed on as bounds.

The test system of one experiment is germinal matrix cells. Briefly: MTT assay of germinal matrix cell proliferation. Format: cell-based. The settings on record: 24 hours, concentration groups 30% and 50%. How it is done:
The effect of substance P on germinal matrix cell proliferation was analyzed by MTT assay.
More specifically, 1,000 μL of 0.5×10^5 CFU/mL germinal matrix cell suspension was added to a 12-well culture plate and incubated for 48 hours. The medium (alpha-Minimum Essential Medium, alpha-MEM+10% FBS+10 ng/ml bFGF) was removed, and then 900 μL of a fresh medium (alpha-Minimum Essential Medium, alpha-MEM+5% FBS+5 ng/ml bFGF) was dispensed into each well, and then 100 μL of the composition including substance P diluted with phosphate buffered saline (PBS) was inoculated at concentrations of 30% and 50%. Additionally, substance P (30% and 50%) at the same concentration as the composition including substance P was respectively mixed with phosphate buffered saline and treated. Meanwhile, 100 μL of phosphate buffered saline was used as a negative control group. After inoculation, cells were incubated at 37° C. for 24 hours, and then the medium was removed. Then, the cells were washed with the phosphate buffered saline three times. Subsequently, 900 μL of the medium was mixed with 100 μL of the MTT solution (0.5 mg/mL), and the mixed solution was treated to each well and allowed to react at 37° C. for 3 hours. Finally, the cells were washed with the phosphate buffered saline and stirred in 150 μL of isopropyl alcohol solution for 3 hours, and absorbance at 570 nm was measured.

A further experiment deals with dermal papilla cells. Briefly: MTT assay of dermal papilla cell proliferation. The experiment is classed as cell-based. The settings on record: 24 hours, concentration groups 30% and 50%. How it is done:
The effect of substance P on dermal papilla cell proliferation was analyzed by MTT assay.
More specifically, 1,000 μL of 0.5×10^5 CFU/mL dermal papilla cell suspension was added to a 12-well culture plate and incubated for 48 hours. The medium (alpha-Minimum Essential Medium, alpha-MEM+10% FBS) was removed, and then 900 μL of a fresh medium (alpha-Minimum Essential Medium, alpha-MEM +5% FBS) was dispensed into each well, and then 100 μL of the composition including substance P diluted with phosphate buffered saline (PBS) was inoculated at concentrations of 30% and 50% (the substance P was contained at a concentration of 6 mg/mL and 10 mg/mL in the composition with concentrations of 30% and 50%, respectively). Additionally, substance P (30% and 50%) at the same concentrations as the composition including substance P was respectively mixed with phosphate buffered saline and treated.
Meanwhile, 100 μL of phosphate buffered saline was used as a negative control group. After inoculation, cells were incubated at 37° C. for 24 hours, and then the medium was removed. Then, the cells were washed with phosphate buffered saline three times. […] Finally, the cells were washed with phosphate buffered saline and stirred in 150 μL of isopropyl alcohol solution for 3 hours, and absorbance at 570 nm was measured.

The test system of experiment [1] is C3H/HeN mice. As to the kind of experiment: H&E histology, thickness and shape of skin in C3H mice with dexamethasone-induced regression phase. The experiment is classed as in vivo. The settings on record: in combination with dexamethasone. How it is done: More specifically, after the procedure of Example 7, the skin tissue of the mice was collected in the direction of the hair follicles and fixed in a fixing solution (4% formaldehyde, Sigma, USA) for 24 hours. […] Thereafter, an infiltration process was carried out to fill the penetrant into the tissue, followed by an embedding process to make a paraffin block. For hematoxylin (Sigma, USA) and eosin (Sigma, USA) staining, the paraffin block was cut into 8 μm and attached to slides (microscope slides, Marienfeld, Germany) coated with 2% 3-aminosilane, followed by drying in a 37° C. slide warmer for 12 hours. Thereafter, the slides were immersed in xylene four times for 7 minutes each through a deparaffinization process, and subjected to hydration for staining, and then washed with water. […] One-way ANOVA was carried out to examine the difference between the entire groups, and the difference between individual means was analyzed using Tukey's test. […] This statistic was analyzed based on Prism software version 5.
Additionally, the thickness of the dermis and the subcutaneous layers was confirmed by the Image J program. Skin thickness was measured by dividing the skin into the dermal layer (D), subcutaneous layer (SC), and whole layer (W), and 30 different areas were measured for each group and the results are shown in the graph of FIG. 13.

Experiment [2] relates to C3H/HeN mice. As to the kind of experiment: Number of hair follicles in skin of C3H mice with dexamethasone-induced regression phase. The experiment is classed as in vivo. The settings on record: in combination with dexamethasone. How it is done:
More specifically, after the procedure of Example 7, the skin tissue of the mice was collected in the direction vertical to the hair follicles and fixed in a fixing solution (4% formaldehyde, Sigma, USA) for 24 hours. The hematoxylin and eosin staining was carried out in the same manner as in Example 8.
Additionally, the number of hair follicles in 1 mm of skin was measured for each group by the Image J program. The number of hair follicles were measured in 10 tissues per group by dividing the skin into D, SC, and W layers, and the results are shown in the graph of FIG. 15.

In experiment [3] the test system is C3H/HeN mice. As to the kind of experiment: Maintenance of skin in growth phase in C3H mice with dexamethasone-induced regression phase (black skin area). The experiment is classed as in vivo. How it is done: More specifically, ketamine (Yuhan Co, Ltd, Korea) and rompun (Bayer Korea, Korea) were mixed to a final concentration of 24.2 mg/mL and 1.8 mg/mL, respectively, and then six-week-old female C3H/HeN mice (Orient Bio, Korea) were anesthetized with 80 μL of the anesthetic solution. After anesthesia, the hair on the back was removed using a clipper, and the remaining hair was completely removed using a hair removal cream. Then, twelve mice with clean skin without wounds or remaining hair at the hair removal site were selected. Three mice were placed in each group so that mice with similar hair cycle were placed in each group, and thereafter the experiment was carried out. The phosphate buffered saline or the composition including the substance P at 50% concentration was intradermally injected in an amount of 50 μL each for a total of 200 μL at four sites on the back of the mice, at intervals of 3 to 4 days for 7 days from 6 days after the hair removal using an insulin syringe. […] One-way ANOVA was carried out to examine the difference between the entire groups, and the difference between individual means was analyzed using Tukey's test. […] This statistic was analyzed based on Prism software version 5. […]

On to “Arg-Pro-Lys-Pro-Gln-Gln-Phe-Phe-Gly-Leu-Met-NH2 (RPKPQQFFGLM-NH2) [substance P, in phosphate buffered saline as comparison group]”, for which the “cell proliferation of germinal matrix cells” value with germinal matrix cells is at most 105%. The “cell proliferation of dermal papilla cells” value with dermal papilla cells is 107%.
For the molecule `Nc1cc(N2CCCCC2)nc(N)[n+]1[O-]` [minoxidil 2%, minoxidil], the “inhibition of the regression phase of the subcutaneous layer (SC) compared to phosphate buffered saline” value in the experiment with C3H/HeN mice [1] came out at 233%. In addition, in the experiment with C3H/HeN mice [2], the “number of hair follicles maintained in the dermis compared to phosphate buffered saline” value was “about 1.4 times”, the “number of hair follicles maintained in the subcutaneous compared to phosphate buffered saline” value was “about 56 times” and the “number of hair follicles maintained in the whole skin compared to phosphate buffered saline” value is on record as “about 3.7 times”. Further, in the experiment on C3H/HeN mice [3] (from black skin area), the “inhibition of the induction of the regression phase by dexamethasone” value was 46%. For the same molecule, the “black-skinned back relative to the total skin” value with C3H/HeN mice [3] (in combination with dexamethasone, 17 days after hair removal, Image J) was 47%.
